We go through one molecule from patent US20060014940A1, “Cloning and characterization of slc26a6, slc26a1, and slc26a2 anion exchangers” (priority 2002, published 2006).

In one assay the target is T1, mouse SLC26A6b (Mus musculus, UniProt Q8CIW6, R572P).
T1 construct: Full-length mouse SLC26A6b and SLC26A 1 cDNAs were cloned into the Xenopus expression vector pGEMHE; expressed in transfected cells; host or cells: Xenopus laevis oocytes injected with in vitro transcribed cRNA (pGEMHE)
T1 sequence (Q8CIW6 24-758 R572P limits assumed): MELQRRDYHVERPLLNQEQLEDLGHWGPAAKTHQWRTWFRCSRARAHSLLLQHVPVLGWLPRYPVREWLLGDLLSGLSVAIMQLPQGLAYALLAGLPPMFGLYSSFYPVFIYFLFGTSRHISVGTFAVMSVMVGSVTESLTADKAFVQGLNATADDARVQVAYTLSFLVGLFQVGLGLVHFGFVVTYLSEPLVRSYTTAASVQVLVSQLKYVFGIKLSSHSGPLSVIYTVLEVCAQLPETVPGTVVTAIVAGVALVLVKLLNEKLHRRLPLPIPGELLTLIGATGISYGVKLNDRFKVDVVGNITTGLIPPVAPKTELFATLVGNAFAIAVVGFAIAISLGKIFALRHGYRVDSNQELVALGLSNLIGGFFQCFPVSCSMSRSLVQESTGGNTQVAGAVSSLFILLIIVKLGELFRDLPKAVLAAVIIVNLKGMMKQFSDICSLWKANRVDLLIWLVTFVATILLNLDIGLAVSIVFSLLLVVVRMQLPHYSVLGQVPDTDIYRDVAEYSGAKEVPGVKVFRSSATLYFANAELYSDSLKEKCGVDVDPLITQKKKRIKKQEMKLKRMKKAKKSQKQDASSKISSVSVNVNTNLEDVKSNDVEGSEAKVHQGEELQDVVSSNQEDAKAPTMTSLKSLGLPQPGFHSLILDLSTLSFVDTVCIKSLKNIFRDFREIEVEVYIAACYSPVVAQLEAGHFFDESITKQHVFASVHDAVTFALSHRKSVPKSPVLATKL
Briefly: Radiolabelled anion uptake/exchange in Xenopus oocytes expressing mouse SLC26A6b. It counts as cell-based. The procedure: Full-length mouse SLC26A6b and SLC26A 1 cDNAs were cloned into the Xenopus expression vector pGEMHE (Liman et al., 1992). The SLC26A6 and SLC26A1 expression constructs were linearized, and cRNA was transcribed in vitro using T7 RNA polymerase and a […] MMACHINE® transcription kit (Ambion, Inc. of Austin, Tex., United States of America). Defolliculated oocytes were injected with 25 nl to 50 nl of water or with a solution containing cRNA at a concentration of 0.5 μg/μl (12.5 ng to 25 ng per oocyte) using a Nanoliter-2000 injector (WPI Instruments of Sarasota, Fla., United States of America). Oocytes were incubated at 17° C. in 50% Leibovitz's L-15 media supplemented with penicillin/streptomycin (1000 units/ml) and glutamine for 2-3 days for uptake assays.
For sulphate uptake assays, oocytes were pre-incubated for 20 minutes in chloride-free uptake medium (100 mM NMDG gluconate, 2 mM potassium gluconate, 1 mM calcium gluconate, 1 mM magnesium gluconate, 10 mM HEPES-Tris, pH 6.0 or pH 7.5 as indicated), followed by a 60-minute period for uptake in the same medium supplemented with 1 mM K2^35SO4 (40 μCi/ml). The cells were then washed three times in uptake buffer with 5 mM cold K2SO4 to remove tracer activity in the extracellular fluid. The oocytes were dissolved individually in 10% SDS, and tracer activity was determined by scintillation counting. Uptake of chloride, formate, and oxalate was assayed using the same chloride-free uptake solutions, substituting 8.3 mM ^36Cl, 500 μM [^14C]oxalate, or 50 μM [^14C]formate for labeled sulphate.
For sulphate exchange and cis-inhibition experiments, the concentration of NMDG-gluconate in the uptake solution was adjusted to maintain isotonic osmolality, which was confirmed experimentally using a FISKE® osmometer (Fiske Associates, Inc. of Bethel, Conn., United States of America).

The target of a further assay is T2, human SLC26A3 (DRA) (Homo sapiens, UniProt P40879).
T2 construct: expressed in transfected cells; host or cells: Xenopus laevis oocytes (SLC26A3-injected)
T2 sequence (P40879 1-764): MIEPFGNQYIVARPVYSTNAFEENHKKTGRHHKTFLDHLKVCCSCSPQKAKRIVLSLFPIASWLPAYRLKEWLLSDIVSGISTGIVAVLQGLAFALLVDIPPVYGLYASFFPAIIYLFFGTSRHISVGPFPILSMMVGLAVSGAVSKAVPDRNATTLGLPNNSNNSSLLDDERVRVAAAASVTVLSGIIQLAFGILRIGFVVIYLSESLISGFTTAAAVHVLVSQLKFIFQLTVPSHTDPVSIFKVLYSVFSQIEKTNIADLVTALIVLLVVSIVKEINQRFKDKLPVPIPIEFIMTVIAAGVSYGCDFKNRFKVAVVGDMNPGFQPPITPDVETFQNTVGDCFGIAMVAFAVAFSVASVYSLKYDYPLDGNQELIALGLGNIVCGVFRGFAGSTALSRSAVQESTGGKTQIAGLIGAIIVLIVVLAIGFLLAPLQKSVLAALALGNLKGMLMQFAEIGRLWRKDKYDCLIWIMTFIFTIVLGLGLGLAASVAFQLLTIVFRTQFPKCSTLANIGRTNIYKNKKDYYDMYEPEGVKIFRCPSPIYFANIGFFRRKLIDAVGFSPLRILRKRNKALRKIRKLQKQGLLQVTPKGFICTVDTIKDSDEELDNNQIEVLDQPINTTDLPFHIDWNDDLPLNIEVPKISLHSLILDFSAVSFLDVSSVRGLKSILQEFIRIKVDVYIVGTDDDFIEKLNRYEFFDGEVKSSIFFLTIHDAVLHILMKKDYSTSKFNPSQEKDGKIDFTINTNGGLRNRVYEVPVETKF
The assay can be described thus: Cis-inhibition of 36Cl uptake in oocytes expressing human SLC26A3 (DRA). The conditions noted are these: 10 mM anion (FIG. 19). It counts as cell-based. The source says:
FIG. 19 depicts cis-inhibition of ^36Cl^− uptake by various anions in oocytes expressing human SLC26A3 (DRA).
The SLC26A6 exchanger is a likely mediator of intestinal oxalate absorption and thus a potential therapeutic target in calcium-oxalate stone disease. Intestinal expression of the SLC26A3 or DRA protein is also robust, in keeping with the genetic role of SLC26A3 in congenital chloride-losing diarrhea. Hoglund, P. et al., 1996. […] Scott, D. A., et al., 1999; Scott, D.A. & Karniski, L. P., 2000.

At mouse SLC26A6b (500 μM [14C]oxalate (FIG. 8A)), `O=C(O)C(=O)O` [oxalate] gave an oxalate uptake of 487±50 pmol/oocyte/hour. The “exchange of SO4 2− with extracellular anion (trans-stimulation of 35SO4 efflux)” value on mouse SLC26A6b (10 mM of the anion, 30 minutes (FIG. 7C)) is on record as “clearly mediated exchange”. The “oxalate transport inferred from cis-inhibition of Cl transport” value on human SLC26A3 (DRA) is reported as “minimal if any”.
